# Measured values as given in US20260234185A1, “ANTI-AGING COMPOSITION COMPRISING PEPTIDE COMPLEX AS ACTIVE INGREDIENT” (priority 2023, published 2026).
# Where no end group is shown, it is not given here.
# What was measured:
# Format in all cases: cell-based
# [1] = tested on: AMP-activated protein kinase (AMPK); assay: Western blot of AMPK phosphorylation in palmitate-treated adipocytes (insulin metabolic disorder); details: 3T3-L1 adipocytes, 25 μM palmitate 30 minutes; 0.2, 2, 20 μg/mL; 24 hours; Western blot (FIGS. 3a, 3b)
# Method: (§1) An experiment was performed to determine whether the peptide complex prepared in Preparation Example 1 increases the phosphorylation of AMP-activated protein kinase (AMPK) and the expression level of SIRT1 (sirtuin1) protein in adipocytes in a state of insulin metabolic disorder induced by palmitate treatment.
# (§2) When 3T3-L1 preadipocytes reached 80% confluence, they were seeded at 5×10^3 cells/well in a 96-well plate and used for the experiment. Two days after reaching confluence, the medium was replaced with a differentiation-inducing medium to induce the differentiation into adipocytes, and two days after the induction, the cells were cultured for 2 days in a medium containing 10% FBS and 10 μg/mL insulin, and then the medium was replaced with 10% FBS every 2 days until their differentiation into adipocytes. Once differentiation was complete, the medium was replaced with a serum-free medium and cultured for 4 hours to induce starvation. After 30 minutes of treatment with 25 μM palmitate, the peptide complexes were treated at concentrations of 0.2 μg/mL, 2 μg/mL, and 20 μg/mL and incubated for 24 hours. After dissolving by adding dissolution buffer, the proteins obtained by centrifugation at 4° C. and 12,000 rpm for 30 minutes were quantified using a BCA kit. […]
# FGF21 protein = assay: ELISA of FGF21 protein expression in adipocytes; details: differentiated 3T3-L1 adipocytes, 0.2, 2, 20 μg/mL, ELISA (FIG. 2)
# Method: An experiment was performed using adipocytes to determine whether the peptide complex prepared in Preparation Example 1 increases the expression level of FGF21 protein, a longevity-related protein, in adipocytes.
# When 3T3-L1 preadipocytes reached 80% confluence, they were seeded at 5×10^3 cells/well in a 96-well plate and used for the experiment. Two days after reaching confluence, the medium was replaced with a differentiation-inducing medium to induce the differentiation into adipocytes, and two days after the induction, the cells were cultured for 2 days in a medium containing 10% FBS and 10 μg/mL insulin, and then the medium was replaced with 10% FBS every 2 days until differentiation into adipocytes. Once the differentiation was complete, the medium was replaced with a serum-free medium and cultured for 4 hours to induce starvation. The peptide complexes were treated at concentrations of 0.2 μg/mL, 2 μg/mL, and 20 μg/mL, and cultured for 48 and 72 hours, respectively. The complexes were dissolved by adding dissolution buffer thereto, and the proteins obtained by centrifugation at 4° C. and 12,000 rpm for 10 minutes were analyzed using a Quantikine ELISA Kit, and the absorbance was measured at 450 nm using a Microplate Reader.
# [2] = tested on: inflammatory cytokine TNFα; assay: Western blot of TNFα expression in adipocytes with palmitate-induced inflammation; details: 3T3-L1 adipocytes, inflammation induced by 25 μM palmitate; 0.2, 2, 20 μg/mL; 24 hours; Western blot vs PA control (FIGS. 5a, 5b)
# Method: An experiment was performed to determine whether the peptide complex prepared in Preparation Example 1 induces a decrease in the phosphorylation of IκBα and a decrease in the expression level of the inflammatory cytokine TNFα in adipocytes under an inflammatory state induced by palmitate treatment.
# When 3T3-L1 preadipocytes reached 80% confluence, they were seeded at 5×10^3 cells/well in a 96-well plate and used for the experiment. Two days after reaching confluence, the medium was replaced with a differentiation-inducing medium to induce the differentiation into adipocytes. Two days after the induction, the cells were cultured for 2 days in a medium containing 10% FBS and 10 μg/mL insulin, and then the medium was replaced with 10% FBS every days 2 until their differentiation into adipocytes. Once the differentiation was complete, the medium was replaced with a serum-free medium and cultured for 4 hours to induce starvation. After treating with 25 μM palmitate for 30 minutes, the peptide complexes were treated at concentrations of 0.2 μg/mL, 2 μg/mL, and 20 μg/mL and incubated for 24 hours. The control group (PA) was treated only with palmitate but not with the peptide complex. After dissolving by adding dissolution buffer thereto, the proteins obtained by centrifugation at 4° C. and 12,000 rpm for 30 minutes were quantified using a BCA kit. […]
# SIRT1 (sirtuin1) protein = assay: Western blot of SIRT1 protein expression in palmitate-treated adipocytes (insulin metabolic disorder); details: 3T3-L1 adipocytes, 25 μM palmitate 30 minutes; 0.2, 2, 20 μg/mL; 24 hours; Western blot (FIGS. 3a, 3b)
# Method: as §1, §2
substance,measurement,setting,value
peptide complex: prepared by mixing equal amounts of the peptide of SEQ ID NO: 1 (LKTRN) and the peptide of SEQ ID NO: 2 (KGSATGWMA) (also: mixture of two peptides),phosphorylation of AMPKα,[1],increased
same,expression level of FGF21 protein,FGF21 protein; 48 hours,increased
same,expression level of FGF21 protein,FGF21 protein; 72 hours,increased
same,expression level of TNFα,[2],reduced
same,expression level of SIRT1 protein,SIRT1 (sirtuin1) protein,increased
